Data published in PMC3481155, “AhR activation underlies the CYP1A autoinduction by A-998679 in rats” (Frontiers in Genetics, 2012).

Tests used:
[1] = test system: Cyp1a1; assay: Cyp1a1 mRNA in rat liver after 5 days of dosing (microarray, RT-PCR); type: in vivo
Protocol: All animal experiments were conducted in accordance with the Guiding Principles in the Use of Animals in Toxicology (http://www.toxicology.org/ai/air/air6.asp) and were approved by Abbott's Institutional Animal Care and Use Committee (IACUC). Male Sprague-Dawley rats [Crl:CD®(SD)IGS BR], weighing ~250 g at study initiation were obtained from Charles River Laboratories, Inc. (Wilmington, MA). Rats were housed singly in ventilated, stainless steel, wire-bottom hanging cages and fed non-certified Rodent Chow (Harlan Labs, Madison, WI), and water ad libitum and acclimated for at least 5 days after arrival. […] Serum clinical chemistry parameters were quantified using an Aeroset Clinical Chemistry Analyzer (Abbott Laboratories, Abbott Park, IL) and included alanine amino transferase (ALT), aspartate amino transferase (AST), gamma glutamyltransferase (GGT), and alkaline phosphatase (ALP) activities.
Frozen liver or jejunum were immediately added to 4 ml of TRIzol reagent (Invitrogen Life Technologies) and homogenized using a Polytron 300D homogenizer (Brinkman Instruments, Westbury, NY). […] Nucleic acid concentration was determined by OD 260 nm (Smart-Spec, Bio-Rad Laboratories, Hercules, CA), and RNA integrity was evaluated using an Agilent 2100 bioanalyzer (Agilent Technologies, Foster City, CA). […]

[2] = molecular target: T1, rat Cyp 2D1 (Rattus norvegicus, UniProt P10633); assay: Recombinant rat Cyp phenotype profiling, 2D1; type: in vitro ADME; conditions: 60 min
T1 construct: purchased BD Gentest; host or cells: baculovirus infected insect cells
Protocol: Identification of the drug metabolizing enzymes (DMEs) of A-998679 was studied in cDNA expressed recombinant enzymes prepared from baculovirus infected insect cells over-expressing rat Cyp isoforms (BD Gentest, Woburn, MA) as listed in Table 2. Incubations were conducted in duplicate using Supersomes. The incubation mixture contained 100 pmol/ml of enzymes, except for Cyp1a1 (200 pmol/ml), 0.1 or 0.21 μM of [^3H]A-998679 in 100 mM phosphate buffer (pH 7.4). Reactions were initiated with the addition of NADPH at a final concentration of 1 mM and incubated at 37°C for 60 min. At the end of the incubation period, the incubations were terminated by the addition of acetonitrile/ethanol (50/50, v/v) solution. Insect control samples lacking expressed enzyme were used as negative control. The degree of metabolism of A-998679 was assessed by percent of parent remaining using the radio-HPLC method described below.
Radiolabeled components from the above assays were profiled following separation by HPLC with on line radioflow detector. The system consisted of an Agilent 1100 Series quaternary pump and autosampler connected to a Packard 500TR flow scintillation detector. The data were processed using the Radiomatic™ Flo-one® software v3.65. The scintillant (Perkin Elmer FLO-SCINT™ III) flow was maintained at 3 ml/min. […]

[3] = test system: CYP1A2; assay: CYP inhibition evaluation in human liver microsomes, CYP1A2 (phenacetin); type: in vitro ADME; conditions: pH 7.4, probe substrate phenacetin
Protocol: (§1) Incubations were performed in human liver microsomes using probe substrate concentrations similar to their corresponding Km values. Enzyme activity was evaluated in the presence of various concentrations of A-998679. The incubations consisted of the test article at varying concentrations (0–30 μM), probe substrate (concentration ~Km, see Table A2), human liver microsomal protein and 1 mM NADPH in 50 mM phosphate buffer at pH 7.4. Relative quantitation of the metabolites was obtained by LC-MS/MS using an ABSciex (Foster City, CA) API3000 or API4000 Qtrap hybrid linear ion trap mass spectrometer equipped with a TurboIonspray source using either PerkinElmer series 200 pumps or Agilent 1100 series pump with a Leap autosampler. Analytes were separated using a Phenomenex Prodigy ODS(3) 5 μm, 50 × 2.0 mm column at 50°C, eluted and detected under the specific conditions listed in Tables A3, A4, and A5. The analyte to internal standard peak area ratios were determined using Analyst 1.4 software (Applied Biosytems, Carlsbad, CA). The peak area ratios observed in the presence of test article were compared to the vehicle control in order to determine percent activity. To determine the IC50, the data were plotted as Log [dose] μM vs. % inhibition, and analyzed with a sigmoidal dose-response (variable slope) fitting equation. […]

[4] = molecular target: T2, CYP2C19 (Homo sapiens, UniProt P33261); assay: CYP inhibition evaluation in human liver microsomes, CYP2C19 (S-mephenytoin); type: in vitro ADME; conditions: probe substrate S-mephenytoin
T2 construct: from tissue; host or cells: human liver microsomes
Protocol: as §1

T1 sequence (P10633 whole entry): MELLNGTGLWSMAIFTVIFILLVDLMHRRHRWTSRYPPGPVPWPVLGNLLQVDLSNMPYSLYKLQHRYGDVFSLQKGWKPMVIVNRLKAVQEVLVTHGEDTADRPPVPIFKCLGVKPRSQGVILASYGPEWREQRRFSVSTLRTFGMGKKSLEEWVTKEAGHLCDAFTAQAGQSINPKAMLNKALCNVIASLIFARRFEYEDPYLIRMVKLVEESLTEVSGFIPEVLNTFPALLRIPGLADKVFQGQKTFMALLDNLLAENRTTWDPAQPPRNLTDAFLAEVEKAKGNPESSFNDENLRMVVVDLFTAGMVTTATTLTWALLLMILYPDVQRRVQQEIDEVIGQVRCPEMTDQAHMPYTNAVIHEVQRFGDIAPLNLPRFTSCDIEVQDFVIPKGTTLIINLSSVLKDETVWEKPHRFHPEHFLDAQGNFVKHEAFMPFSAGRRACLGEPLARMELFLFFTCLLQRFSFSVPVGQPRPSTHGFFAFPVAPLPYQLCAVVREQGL
T2 sequence (P33261 whole entry): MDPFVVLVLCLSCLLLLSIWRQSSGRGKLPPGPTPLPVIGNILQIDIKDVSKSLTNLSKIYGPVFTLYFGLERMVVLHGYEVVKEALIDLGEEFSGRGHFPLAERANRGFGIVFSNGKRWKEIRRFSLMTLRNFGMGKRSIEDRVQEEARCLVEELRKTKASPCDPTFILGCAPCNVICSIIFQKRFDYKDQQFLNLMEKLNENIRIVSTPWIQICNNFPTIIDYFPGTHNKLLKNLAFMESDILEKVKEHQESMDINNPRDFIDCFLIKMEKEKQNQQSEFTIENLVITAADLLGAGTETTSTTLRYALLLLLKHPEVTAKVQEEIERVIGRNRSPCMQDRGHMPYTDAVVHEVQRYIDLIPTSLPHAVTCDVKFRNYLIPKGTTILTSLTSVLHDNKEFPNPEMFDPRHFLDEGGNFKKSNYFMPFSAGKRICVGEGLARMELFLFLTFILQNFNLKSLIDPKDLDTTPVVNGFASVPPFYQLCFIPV

Cyp1a1 mRNA increase in rat liver (microarray) ([1]; 5 days of dosing, in at least one animal starting at the 100 mg/kg dose): 10–100 fold
Cyp1a1 mRNA expression in rat liver (RT-PCR) ([1]; 5 days, all doses (30, 100, 200 mg/kg/day)): strongly induced
% parent remaining ([2]; recombinant rat Cyp 2D1, 0.10 μM): 91.9%
% parent remaining ([2]; recombinant rat Cyp 2D1, 0.21 μM): 91.1%
IC50 [3]: 460 nM
IC50 [4]: > 30000 nM
SMILES: N#Cc1cccc(-c2noc(-c3cccnc3)n2)c1 [A-998679, 3-(5-pyridin-3-yl-1,2,4-oxadiazol-3-yl) benzonitrile]
